Results reported in the NIST ThermoML archive (doi:10.1016/j.jct.2015.09.018).
Numbers after ± are expanded uncertainties.

Conditions: 101.33 kPa, Crystal 3; for molar entropy: relaxation calorimeter

[O-2].[O-2].[Ti+4] [titanium(IV) oxide] gave a molar entropy (0.5 K) of 0.000413 ± 3.9e-05 J/K/mol, a molar entropy (1 K) of 0.000882 ± 7.5e-05 J/K/mol and a molar entropy (1.5 K) of 0.00146 ± 0.00012 J/K/mol. For the same compound, the molar entropy (2 K) was 0.00221 ± 0.00018 J/K/mol, the molar entropy (2.5 K) was 0.00316 ± 0.00026 J/K/mol and the molar entropy (3 K) was 0.00439 ± 0.00036 J/K/mol. For the same compound, the molar entropy (3.5 K) was 0.00591 ± 0.00048 J/K/mol, the molar entropy (4 K) was 0.00779 ± 0.00063 J/K/mol and the molar entropy (4.5 K) was 0.01 ± 0.0008 J/K/mol. It also gave a molar entropy (5 K) of 0.0127 ± 0.001 J/K/mol, a molar entropy (5.5 K) of 0.0158 ± 0.0013 J/K/mol and a molar entropy (6 K) of 0.0194 ± 0.0016 J/K/mol. It also gave a molar entropy (6.5 K) of 0.0234 ± 0.0019 J/K/mol, a molar entropy (7 K) of 0.0279 ± 0.0022 J/K/mol and a molar entropy (7.5 K) of 0.0328 ± 0.0026 J/K/mol. For the same compound, the molar entropy (8 K) was 0.0383 ± 0.0031 J/K/mol, the molar entropy (8.5 K) was 0.0442 ± 0.0035 J/K/mol and the molar entropy (9 K) was 0.0506 ± 0.0041 J/K/mol. For the same compound, the molar entropy (9.5 K) was 0.0575 ± 0.0046 J/K/mol, the molar entropy (10 K) was 0.0649 ± 0.0052 J/K/mol and the molar entropy (11 K) was 0.081 ± 0.0065 J/K/mol. The molar entropy (12 K) was 0.0989 ± 0.0079 J/K/mol, the molar entropy (13 K) was 0.119 ± 0.01 J/K/mol and the molar entropy (14 K) was 0.141 ± 0.011 J/K/mol. For the same compound, the molar entropy (15 K) was 0.164 ± 0.013 J/K/mol, the molar entropy (16 K) was 0.19 ± 0.015 J/K/mol and the molar entropy (17 K) was 0.218 ± 0.017 J/K/mol. The molar entropy (18 K) was 0.248 ± 0.02 J/K/mol, the molar entropy (19 K) was 0.28 ± 0.022 J/K/mol and the molar entropy (20 K) was 0.314 ± 0.025 J/K/mol. It also gave a molar entropy (25 K) of 0.524 ± 0.042 J/K/mol, a molar entropy (30 K) of 0.798 ± 0.064 J/K/mol and a molar entropy (35 K) of 1.14 ± 0.09 J/K/mol. The molar entropy (40 K) was 1.55 ± 0.12 J/K/mol, the molar entropy (45 K) was 2.02 ± 0.16 J/K/mol and the molar entropy (50 K) was 2.55 ± 0.2 J/K/mol. The molar entropy (55 K) was 3.15 ± 0.25 J/K/mol, the molar entropy (60 K) was 3.8 ± 0.3 J/K/mol and the molar entropy (65 K) was 4.5 ± 0.36 J/K/mol. It also gave a molar entropy (70 K) of 5.25 ± 0.42 J/K/mol, a molar entropy (75 K) of 6.04 ± 0.48 J/K/mol and a molar entropy (80 K) of 6.87 ± 0.55 J/K/mol. For the same compound, the molar entropy (85 K) was 7.74 ± 0.62 J/K/mol, the molar entropy (90 K) was 8.65 ± 0.69 J/K/mol and the molar entropy (95 K) was 9.59 ± 0.77 J/K/mol. It also gave a molar entropy (100 K) of 10.56 ± 0.85 J/K/mol, a molar entropy (110 K) of 12.56 ± 1 J/K/mol and a molar entropy (120 K) of 14.64 ± 1.2 J/K/mol. It also gave a molar entropy (130 K) of 16.77 ± 1.3 J/K/mol, a molar entropy (140 K) of 18.94 ± 1.5 J/K/mol and a molar entropy (150 K) of 21.13 ± 1.7 J/K/mol. The molar entropy (160 K) was 23.34 ± 1.9 J/K/mol, the molar entropy (170 K) was 25.56 ± 2 J/K/mol and the molar entropy (180 K) was 27.77 ± 2.2 J/K/mol. The molar entropy (190 K) was 29.99 ± 2.4 J/K/mol, the molar entropy (200 K) was 32.19 ± 2.6 J/K/mol and the molar entropy (210 K) was 34.38 ± 2.8 J/K/mol. It also gave a molar entropy (220 K) of 36.55 ± 2.9 J/K/mol, a molar entropy (230 K) of 38.69 ± 3.1 J/K/mol and a molar entropy (240 K) of 40.82 ± 3.3 J/K/mol. For the same compound, the molar entropy (250 K) was 42.91 ± 3.4 J/K/mol, the molar entropy (260 K) was 44.98 ± 3.6 J/K/mol and the molar entropy (270 K) was 47.03 ± 3.8 J/K/mol. For the same compound, the molar entropy (273.15 K) was 47.66 ± 3.8 J/K/mol, the molar entropy (280 K) was 49.04 ± 3.9 J/K/mol and the molar entropy (290 K) was 51.02 ± 4.1 J/K/mol. For the same compound, the mass density (298.15 K, X-ray diffraction) was 4130 ± 20 kg/m3, the molar entropy (298.15 K) was 52.61 ± 4.2 J/K/mol and the molar entropy (300 K) was 52.97 ± 4.2 J/K/mol. For the same compound, the molar entropy (305 K) was 53.94 ± 4.3 J/K/mol.
